Reference: ChEMBL document CHEMBL4400519, “Indazolylketones as new multitarget cannabinoid drugs” (Eur J Med Chem, 2019)
Activity calls are given as the source filed them. The calls are words filed in the database; no cut-off is given here.

Key:
[1] = molecular target: Beta-secretase 1 (Homo sapiens) (UniProt P56817); assay: Inhibition of human BACE1 at 10 uM incubated for 60 mins using rhodamine-EVNLDAEFK-quencher substrate by FRET assay
[2] = molecular target: T1, Cannabinoid receptor (Mus musculus) (UniProt P47746+P47936); assay: Agonist activity at cannabinoid receptor in ICR mouse vas deferens assessed as inhibition of electrically induced contractions at 8.1 x 10^-6 M after 10 mins in presence of CB2 antagonist AM630 relative to control; assay type: protein assay
[3] = molecular target: T1, Cannabinoid receptor (Mus musculus); assay: Agonist activity at cannabinoid receptor in ICR mouse vas deferens assessed as inhibition of electrically induced contractions at 10^-7 M after 10 mins in presence of CB2 antagonist AM630 relative to control; assay type: protein assay
[4] = molecular target: T1, Cannabinoid receptor (Mus musculus); assay: Agonist activity at cannabinoid receptor in ICR mouse vas deferens assessed as inhibition of electrically induced contractions at 1.82 x 10^-5 M after 10 mins in presence of CB2 antagonist AM630 relative to control; assay type: protein assay
[5] = molecular target: Cholinesterase (Homo sapiens, UniProt P06276); assay: Inhibition of human serum BChE using butyrylthiocholine as substrate by Ellman's assay
[6] = molecular target: T1, Cannabinoid receptor (Mus musculus); assay: Agonist activity at cannabinoid receptor in ICR mouse vas deferens assessed as inhibition of electrically induced contractions at 2.7 x 10^-6 M after 10 mins in presence of CB2 antagonist AM630 relative to control; assay type: protein assay
[7] = molecular target: T1, Cannabinoid receptor (Mus musculus); assay: Agonist activity at cannabinoid receptor in ICR mouse vas deferens assessed as inhibition of electrically induced contractions at 2.7 x 10^-6 M after 10 mins relative to control; assay type: protein assay
[8] = molecular target: T1, Cannabinoid receptor (Mus musculus); assay: Agonist activity at cannabinoid receptor in ICR mouse vas deferens assessed as inhibition of electrically induced contractions at 9 x 10^-7 M after 10 mins relative to control; assay type: protein assay
[9] = molecular target: T1, Cannabinoid receptor (Mus musculus); assay: Agonist activity at cannabinoid receptor in ICR mouse vas deferens assessed as inhibition of electrically induced contractions at 10^-7 M after 10 mins in presence of CB1 antagonist AM251 relative to control; assay type: protein assay
[10] = molecular target: T1, Cannabinoid receptor (Mus musculus); assay: Agonist activity at cannabinoid receptor in ICR mouse vas deferens assessed as inhibition of electrically induced contractions at 8.1 x 10^-6 M after 10 mins relative to control; assay type: protein assay
[11] = molecular target: T1, Cannabinoid receptor (Mus musculus); assay: Agonist activity at cannabinoid receptor in ICR mouse vas deferens assessed as inhibition of electrically induced contractions at 3 x 10^-7 M after 10 mins relative to control; assay type: protein assay
[12] = molecular target: T2, Acetylcholinesterase (Homo sapiens, UniProt P22303); assay: Inhibition of human erythrocyte AChE using acetylthiocholine as substrate by Ellman's assay
[13] = molecular target: T1, Cannabinoid receptor (Mus musculus); assay: Agonist activity at cannabinoid receptor in ICR mouse vas deferens assessed as inhibition of electrically induced contractions at 1.82 x 10^-5 M after 10 mins in presence of CB1 antagonist AM251 relative to control; assay type: protein assay
[14] = molecular target: T1, Cannabinoid receptor (Mus musculus); assay: Agonist activity at cannabinoid receptor in ICR mouse vas deferens assessed as inhibition of electrically induced contractions at 10^-7 M after 10 mins relative to control; assay type: protein assay
[15] = molecular target: T1, Cannabinoid receptor (Mus musculus); assay: Agonist activity at cannabinoid receptor in ICR mouse vas deferens assessed as inhibition of electrically induced contractions at 8.1 x 10^-6 M after 10 mins in presence of CB1 antagonist AM251 relative to control; assay type: protein assay
[16] = molecular target: T1, Cannabinoid receptor (Mus musculus); assay: Agonist activity at cannabinoid receptor in ICR mouse vas deferens assessed as inhibition of electrically induced contractions at 1.82 x 10^-5 M after 10 mins relative to control; assay type: protein assay
[17] = molecular target: T2, Acetylcholinesterase; assay: Inhibition of human erythrocyte AChE at 10 uM using acetylthiocholine as substrate by Ellman's assay
[18] = molecular target: T1, Cannabinoid receptor (Mus musculus); assay: Agonist activity at cannabinoid receptor in ICR mouse vas deferens assessed as inhibition of electrically induced contractions at 3 x 10^-7 M after 10 mins in presence of CB2 antagonist AM630 relative to control; assay type: protein assay
[19] = Antioxidant activity assessed as trolox equivalent of APPH-induced radical scavenging activity by ORAC-FL assay; assay type: functional
[20] = molecular target: T1, Cannabinoid receptor (Mus musculus); assay: Agonist activity at cannabinoid receptor in ICR mouse vas deferens assessed as inhibition of electrically induced contractions at 9 x 10^-7 M after 10 mins in presence of CB2 antagonist AM630 relative to control; assay type: protein assay
[21] = molecular target: T1, Cannabinoid receptor (Mus musculus); assay: Agonist activity at cannabinoid receptor in ICR mouse vas deferens assessed as inhibition of electrically induced contractions at 3 x 10^-7 M after 10 mins in presence of CB1 antagonist AM251 relative to control; assay type: protein assay
[22] = molecular target: T1, Cannabinoid receptor (Mus musculus); assay: Agonist activity at cannabinoid receptor in ICR mouse vas deferens assessed as inhibition of electrically induced contractions at 2.7 x 10^-6 M after 10 mins in presence of CB1 antagonist AM251 relative to control; assay type: protein assay
[23] = molecular target: T1, Cannabinoid receptor (Mus musculus); assay: Agonist activity at cannabinoid receptor in ICR mouse vas deferens assessed as inhibition of electrically induced contractions at 9 x 10^-7 M after 10 mins in presence of CB1 antagonist AM251 relative to control; assay type: protein assay

T1 sequence (P47746 whole entry, looked up): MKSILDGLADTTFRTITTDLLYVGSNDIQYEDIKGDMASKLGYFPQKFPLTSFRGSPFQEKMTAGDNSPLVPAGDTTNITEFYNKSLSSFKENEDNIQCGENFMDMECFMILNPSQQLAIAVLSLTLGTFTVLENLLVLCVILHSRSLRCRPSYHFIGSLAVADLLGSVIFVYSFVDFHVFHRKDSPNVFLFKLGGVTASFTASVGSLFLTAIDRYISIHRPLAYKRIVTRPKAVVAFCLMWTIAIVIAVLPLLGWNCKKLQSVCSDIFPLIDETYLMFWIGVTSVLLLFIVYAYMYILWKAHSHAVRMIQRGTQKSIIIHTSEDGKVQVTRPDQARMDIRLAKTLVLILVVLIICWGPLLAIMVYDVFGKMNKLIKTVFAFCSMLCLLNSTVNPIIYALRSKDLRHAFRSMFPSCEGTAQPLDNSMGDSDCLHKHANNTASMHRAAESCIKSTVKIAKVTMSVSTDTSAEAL
T1 sequence (P47936 whole entry, looked up): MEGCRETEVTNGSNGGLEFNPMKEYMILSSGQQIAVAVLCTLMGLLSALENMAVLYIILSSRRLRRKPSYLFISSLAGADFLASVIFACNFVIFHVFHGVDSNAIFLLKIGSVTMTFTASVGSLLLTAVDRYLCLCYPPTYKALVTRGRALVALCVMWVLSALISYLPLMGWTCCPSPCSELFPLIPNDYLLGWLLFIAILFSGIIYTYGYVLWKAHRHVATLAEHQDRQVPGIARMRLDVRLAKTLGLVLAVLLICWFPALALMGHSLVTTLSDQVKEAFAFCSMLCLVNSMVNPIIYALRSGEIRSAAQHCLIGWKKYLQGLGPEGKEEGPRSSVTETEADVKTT
Chain of Cholinesterase (P06276 whole entry): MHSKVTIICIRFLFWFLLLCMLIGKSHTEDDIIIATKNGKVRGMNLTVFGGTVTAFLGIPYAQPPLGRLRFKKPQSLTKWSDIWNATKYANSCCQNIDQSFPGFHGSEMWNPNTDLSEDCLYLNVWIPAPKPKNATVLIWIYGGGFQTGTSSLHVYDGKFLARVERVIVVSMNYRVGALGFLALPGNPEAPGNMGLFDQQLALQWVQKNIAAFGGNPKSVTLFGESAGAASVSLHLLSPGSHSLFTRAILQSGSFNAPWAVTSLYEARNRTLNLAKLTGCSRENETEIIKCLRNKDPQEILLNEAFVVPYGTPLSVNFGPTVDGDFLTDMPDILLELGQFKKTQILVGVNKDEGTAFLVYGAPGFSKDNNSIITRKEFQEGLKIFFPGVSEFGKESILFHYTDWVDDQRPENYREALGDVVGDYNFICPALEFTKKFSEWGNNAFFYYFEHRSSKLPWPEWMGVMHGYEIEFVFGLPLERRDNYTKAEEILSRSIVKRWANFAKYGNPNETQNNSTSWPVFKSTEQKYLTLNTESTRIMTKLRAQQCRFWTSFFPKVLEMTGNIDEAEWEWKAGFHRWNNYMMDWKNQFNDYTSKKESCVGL
T2 sequence (P22303 whole entry): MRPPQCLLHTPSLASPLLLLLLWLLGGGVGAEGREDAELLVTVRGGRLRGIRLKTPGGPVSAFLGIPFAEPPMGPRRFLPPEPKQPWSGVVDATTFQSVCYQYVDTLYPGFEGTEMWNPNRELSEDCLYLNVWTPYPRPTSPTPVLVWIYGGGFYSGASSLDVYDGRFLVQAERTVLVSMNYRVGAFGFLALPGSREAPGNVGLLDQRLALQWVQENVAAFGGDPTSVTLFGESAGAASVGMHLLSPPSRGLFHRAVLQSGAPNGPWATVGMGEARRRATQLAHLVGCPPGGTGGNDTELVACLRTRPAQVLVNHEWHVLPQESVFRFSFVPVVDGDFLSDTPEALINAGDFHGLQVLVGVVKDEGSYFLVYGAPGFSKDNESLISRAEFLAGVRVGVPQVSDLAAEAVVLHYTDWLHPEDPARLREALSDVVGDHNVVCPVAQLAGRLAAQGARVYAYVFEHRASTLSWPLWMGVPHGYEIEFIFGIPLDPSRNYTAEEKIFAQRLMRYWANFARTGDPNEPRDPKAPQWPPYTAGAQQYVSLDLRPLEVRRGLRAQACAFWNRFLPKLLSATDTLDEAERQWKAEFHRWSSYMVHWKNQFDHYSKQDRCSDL
Chain of Beta-secretase 1 (Homo sapiens) (P56817 whole entry): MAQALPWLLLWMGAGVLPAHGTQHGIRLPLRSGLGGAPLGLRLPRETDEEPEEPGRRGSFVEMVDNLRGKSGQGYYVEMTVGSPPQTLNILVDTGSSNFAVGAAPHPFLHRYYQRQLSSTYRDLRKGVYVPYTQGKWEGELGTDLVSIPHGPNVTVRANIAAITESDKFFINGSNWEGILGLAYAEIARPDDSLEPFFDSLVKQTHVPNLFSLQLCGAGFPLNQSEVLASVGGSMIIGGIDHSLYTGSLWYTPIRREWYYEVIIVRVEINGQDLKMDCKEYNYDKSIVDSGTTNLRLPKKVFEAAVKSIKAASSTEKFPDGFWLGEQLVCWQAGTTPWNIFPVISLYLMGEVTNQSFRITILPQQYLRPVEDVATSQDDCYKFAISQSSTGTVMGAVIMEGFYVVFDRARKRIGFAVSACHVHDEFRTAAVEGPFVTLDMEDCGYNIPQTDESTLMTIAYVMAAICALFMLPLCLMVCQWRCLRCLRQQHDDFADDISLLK

Compound: O=C(c1cccc2ccccc12)n1nc(OCCN2CCCCC2)c2ccccc21
- inhibition [1]: 11%
- inhibition [2]: 73.6%
- inhibition [3]: -8.6%
- inhibition [4]: 92%
- IC50 [5]: 0.26 nM
- inhibition [6]: 15.7%
- inhibition [7]: 28.6%
- inhibition [8]: 8.6%
- inhibition [9]: -7.7%
- inhibition [10]: 69.2%
- inhibition [11]: 1.4%
- IC50 [12]: > 10 µM
- inhibition [13]: 73.3%
- inhibition [14]: -0.7%
- inhibition [15]: 27.8%
- inhibition [16]: 93.7%
- inhibition [17]: 37%
- inhibition [18]: -7.9%
- Activity [19]: inactive
- inhibition [20]: -2.6%

Compound: O=C(c1cccc2ccccc12)n1nc(OCCCN2CCCC2)c2ccccc21
- inhibition [1]: 20%
- inhibition [2]: 68.7%
- inhibition [3]: -2.7%
- inhibition [4]: 89.5%
- IC50 [5]: 0.15 nM
- inhibition [6]: 15.2%
- inhibition [7]: 11.3%
- inhibition [8]: 3.2%
- inhibition [9]: -6.7%
- inhibition [10]: 56.1%
- inhibition [11]: 0.5%
- IC50 [12]: > 10 µM
- inhibition [13]: 88.4%
- inhibition [14]: -2%
- inhibition [15]: 57.9%
- inhibition [16]: 87.4%
- inhibition [17]: 35%
- inhibition [18]: -0.9%
- inhibition [21]: -8.6%
- Activity [19]: inactive
- inhibition [22]: 5.7%
- inhibition [20]: 4%
- inhibition [23]: -7.2%

Compound: O=C(c1cccc2ccccc12)n1nc(OCCCN2CCCCC2)c2ccccc21
- inhibition [1]: 42%
- inhibition [2]: 41%
- inhibition [3]: -8.2%
- inhibition [4]: 56.7%
- IC50 [5]: 0.07 nM
- inhibition [6]: 14.2%
- inhibition [7]: 16%
- inhibition [8]: 7.9%
- inhibition [9]: -6.4%
- inhibition [10]: 31.5%
- inhibition [11]: 3%
- IC50 [12]: > 10 µM
- inhibition [13]: 18.4%
- inhibition [14]: 1%
- inhibition [15]: 2.7%
- inhibition [16]: 55.9%
- inhibition [17]: 43%
- inhibition [18]: -5.4%
- inhibition [21]: -5%
- Activity [19]: inactive
- inhibition [22]: -2.4%
- inhibition [20]: 0.1%
- inhibition [23]: -3.7%

Compound: O=C(c1ccccc1Cl)n1nc(OCCCN2CCCCC2)c2ccccc21
- inhibition [1]: 12%
- inhibition [2]: 34.3%
- inhibition [3]: -7.9%
- inhibition [4]: 79.8%
- IC50 [5]: 70 nM
- inhibition [6]: 9.3%
- inhibition [7]: 13%
- inhibition [8]: 8.9%
- inhibition [9]: -1.7%
- inhibition [10]: 42.8%
- inhibition [11]: 2.8%
- IC50 [12]: 9.7 µM
- inhibition [13]: 88.2%
- inhibition [14]: -2.2%
- inhibition [15]: 51.5%
- inhibition [16]: 87.3%
- inhibition [18]: -7%
- inhibition [21]: -0.4%
- Activity [19]: 0.28 equiv
- inhibition [22]: 10.7%
- inhibition [20]: 6.2%
- inhibition [23]: 4.7%

Compound: O=C(c1cccc(F)c1F)n1nc(OCCN2CCCC2)c2ccccc21
- inhibition [1]: 14%
- inhibition [2]: 21.2%
- inhibition [3]: -3.8%
- inhibition [4]: 30.1%
- IC50 [5]: 11000 nM
- inhibition [6]: 13.2%
- inhibition [7]: 24.1%
- inhibition [8]: 11%
- inhibition [9]: -1.6%
- inhibition [10]: 37.5%
- inhibition [11]: 3.6%
- IC50 [12]: 11 µM
- inhibition [13]: 29.9%
- inhibition [14]: 0.8%
- inhibition [15]: 23.3%
- inhibition [16]: 49.4%
- inhibition [18]: -2.8%
- inhibition [21]: -1.2%
- Activity [19]: inactive
- inhibition [22]: 12.5%
- inhibition [20]: 3.7%
- inhibition [23]: 4.9%

Compound: O=C(c1cccc(Cl)c1Cl)n1nc(OCCN2CCCCC2)c2ccccc21
- inhibition [1]: 18.1%
- inhibition [2]: 60.2%
- inhibition [3]: -1.2%
- inhibition [4]: 78.2%
- IC50 [5]: 600 nM
- inhibition [6]: 8.6%
- inhibition [7]: 29.4%
- inhibition [8]: 15.6%
- inhibition [9]: -1.8%
- inhibition [10]: 80.5%
- inhibition [11]: 3.8%
- IC50 [12]: 10.5 µM
- inhibition [13]: 43.4%
- inhibition [14]: 1.3%
- inhibition [15]: 23.5%
- inhibition [16]: 87.2%
- inhibition [18]: -1.3%
- inhibition [21]: -0.9%
- Activity [19]: inactive
- inhibition [22]: 3.1%
- inhibition [20]: 2.4%
- inhibition [23]: 1%
